Test results taken from US20240216310A1, “Rapid Onset Therapeutic Anti-Depression Ketosis Enabled by D-BetaHydroxyButyric Acid Systems, Methods and Compounds for Psilocybin co-administration” (American Ketone Therapeutics LLC, priority 2022, published 2024).

What was measured:
[1] = Blood ketone levels by Abbott blood test strip after D-BHB oral drink; format: in vivo, human
Text: FIG. 8 is a graphical illustration of D-BHB exogenous ketone blood levels. FIG. 8 details rapid ketosis confirmed by Abbott blood test strip after 15 g D-BHB with palatability agent administered by oral drink. Blood ketone levels document rise from 0.1 mmol/L to 2.7 mmol/L. By supplementing an individual with exogenous ketone preparations incorporating the natural D-Beta-HydroxyButyric Acid (D-BHB) optionally combined with a palatability agent, internal body ketone levels rapidly rise when directly compared with non-supplementing individuals. The ketone body D-BHB is first and foremost an energy source, which is directly and preferentially metabolized by the brain. D-BHB is also active as a signaling mechanism and neuro-inflammation reduction agent, resulting in broad and beneficial mental health related benefits.
FIG. 9 is a graphical illustration of D-BHB exogenous ketone blood levels. FIG. 9 details rapid ketosis within 45 minutes confirmed by Abbott blood test strip after 10 g D-BHB with palatability agent administered by oral drink. Blood ketone levels document rise from 0.2 mmol/L to 1.8 mmol/L and 0.6 mmol/L to 1.9 mmol/L in a variety of test subjects. FIG. 9 reinforces the fact that supplementation by utilizing free D only BetaHydroxyButyric Acid without ketone salt or ketone ester is a reliable, reproducible method and system for rapid ketone level increase for mental health protection and maintenance. While amounts of free D only BetaHydroxyButyric Acid taken for mental health anti-depression effects may vary, it is an anticipated preferred embodiment that levels are between 5 and 30 grams of D only BetaHydroxyButyric Acid taken as needed for optimum anti-depression effects. Alternate embodiments may include lower or higher amounts, however, experimental evidence has confirmed optimal administration in this range.

[2] = Continuous glucose monitoring (Abbot Libre CGM) with carbohydrate challenge; format: in vivo, human; conditions: 10 g given 45 minutes before 50 g carbohydrate ingestion; compared with unsupplemented ingestion
Text: FIG. 10 is a graphical illustration of continuous monitoring of body glucose levels. FIG. 10 depicts continuous glucose monitoring levels with carbohydrate challenge documented by Abbot Libre Continuous Glucose Monitoring (CGM) device. In this illustrative embodiment, glucose levels from a 50 g carbohydrate ingestion are depicted unaided by free D-BetaHydroxyButyric Acid on the left and repeated the following day with two 50 g carbohydrate ingestions accompanied by 10 g free D-BetaHydroxyButyric Acid administered 45 minutes before the carbohydrate insult. The data is noteworthy in that while the equivalent amount of identical (nacho chip platter) carbohydrates were consumed, the rapid glucose spike depicted in the unsupplemented ingestion is not found with 10 g D-BetaHydroxyButyric Acid accompaniment. […] As free D-BetaHydroxyButyric Acid can lower glucose while rapidly increasing ketone levels, it is believed that obtaining high ketones while lowering glucose will yield additional anti-depression benefits to high glucose sensitive individuals suffering from depression.

[3] = Continuous Ketone Meter (CKM) monitoring of body ketone levels and deep sleep; format: in vivo, human; conditions: 5 grams consumed 45 minutes prior to bedtime
Text: FIG. 11 is a graphical illustration of continuous monitoring of body ketone levels resulting in improved deep sleep time due to enhanced D-BHB levels according to the claimed invention. It is noteworthy that consumption of even small amounts of free D-BetaHydroxyButyric Acid can give rise to therapeutic ketosis levels as measured by Continuous Ketone Meter (CKM). […] While free D-BetaHydroxyButyric Acid is not a sedative, even small amounts can greatly improve deep sleep quantity and quality. It is an intended and foreseeable embodiment application to increase deep sleep with free D-BetaHydroxyButyric Acid with the aim of improving mental health and anti-depression resiliency.

[4] = Preliminary data on anxiety and depression after D-BetaHydroxyButyric Acid administration; format: in vivo, human; conditions: individuals with mild to moderate depression, given in the absence of a salt or ester
Text: Moreover, dietary interventions for ketogenic diet treatment of bipolar disorder are yielding compelling results. The administration of the natural form of D-BetaHydroxyButyric Acid as an exogenous compound has rapid onset and direct benefits to brain bioenergenics. […] The claimed form of D-BetaHydroxyButyric Acid is bioidentical to the natural form of ketone generated endogenously and chemically distinguishable from the artificial ‘ketone salt’ and synthetic ‘ketone ester’. This application discloses two primary embodiments for the treatment of psychiatric depressive disorders: the use of bioidentical or ‘free D-BetaHydroxyButyric Acid’ alone as well as in combination with Psilocybin derived pharmaceuticals.

[5] = Phase 2b clinical trial reported by Compass Pathways; cited from earlier work
[6] = previously known exogenous ketone compounds, from literature; cited from earlier work

CC(O)CC(=O)O [D-BHB, D-Beta-HydroxyButyric Acid]
Time to rapid ketosis ([1]; 10 g D-BHB with palatability agent): ≤ 45 min
Blood ketone level after administration ([1]; 10 g D-BHB with palatability agent, test subject rising from 0.2 mmol/L): 1.8 mmol/L
Blood ketone level after administration ([1]; 10 g D-BHB with palatability agent, test subject rising from 0.6 mmol/L): 1.9 mmol/L
Blood ketone level after administration ([1]; 15 g D-BHB with palatability agent, rise from 0.1 mmol/L): 2.7 mmol/L
Rapid glucose spike after carbohydrate ingestion [2]: not found
Deep sleep quantity [3]: enhance the quantity of deep sleep obtained
Increase in body ketone level ([3]; CKM): 1.5 mmol/L
Reduction of anxiety and depression [4]: often benefit

CN(C)CCc1c[nH]c2cccc(OP(=O)(O)O)c12 [Comp360]
Outcome in treatment-resistant depression [5]: promising results

C[C@@H](O)CCOC(=O)C[C@@H](C)O [ketone ester, (R)-3-hydroxybutyl (R)-3-hydroxybutyrate]
Ketone increase (blood level) [6]: higher ketone level response
